Results on two molecules are retold here after patent US7053120B2, “Use of carboxy compounds such as 2(4-acetoxyphenyl)2-chloro-N-methyl-ethylammonium chloride as anti-inflammatory agents” (priority 1999, dated 2006).

Like-named read-outs stand apart in the source and are kept apart here.

The subject of data set [1] is E-selectin promoter (pE-selectin-Luc). In kind it is cell-based, mouse. To be noted: 2000 IU/ml TNF.
Data set [2] has as its system AP-1 (p1168(κBmut)IL6P-luc+). In kind it is cell-based, mouse. To be noted: 60 nM STS.
The test system of data set [3] is NF-κB (p(IL6κB)350hu.IL6P-luc+). In kind it is cell-based, mouse. To be noted: 0.1, 1 or 10 μM CpdA compared with 1 μM DEX, 2000 IU/ml TNF.
The subject of data set [4] is IL-6 promoter (p1168hu.IL6P-luc+). It counts as cell-based, mouse. To be noted: added 2 h before 2000 IU/ml TNF, total 8 h.
For data set [5], the system named is GRE-driven promoter (p(GRE)2-50-luc+). It counts as cell-based, mouse.
For data set [6], the system named is Gal4-p65 chimeric protein. Description: Gal4-p65 transactivation of p(Gal)2-50hu.IL6P-luc+ in L929sA cells. In kind it is cell-based, mouse.
For data set [7] the following is noted: kept in solution (especially at pH5 and above); cited from earlier work.
In data set [8] the test system is NF-κB reporter p(IL6-κB)350hu.IL6P-luc+, GR dependence. In kind it is cell-based, human. The note with it: mock DNA versus pSVhGRα, 2000 IU/ml TNF.
Data set [9] in a line: Stability of the compound on storage and in solution. In kind it is physicochemical. The note with it: solid, storage. The text has this:
The invention further relates to compositions, preferably pharmaceutical compositions, comprising as an active ingredient at least one of the compounds as defined in formula (I) together with (pharmaceutically) acceptable excipients. […] The preferred compound exerting this activity is 2(4-acetoxyphenyl)-2-chloro-N-methyl-ethylammonium chloride and has a molecular weight of 264.14.

The subject of data set [10] is endogenous murine IL-6 production. Description: Murine IL-6 ELISA on supernatant of TNF-induced L929sA cells. It counts as cell-based, mouse. The note with it: 1 μM and 10 μM, 2000 IU/ml TNF, 8 h. (In general: ELISA stands for enzyme-linked immunosorbent assay.)
In data set [11] the test system is NF-κB DNA-binding activity (IL-6 NF-κB response element). Description: EMSA of NF-κB DNA-binding activity in L929sA cells. In kind it is cell-based, mouse. To be noted: all concentrations indicated, added 2 h before TNF (2000 IU/ml), total 4 h. (In general: A gel shift assay detects complexes by their altered migration in electrophoresis.)
The next data set relates to JNK p46 and p54. The data set is described as follows: MAPK activation assay (phospho-specific Western blot), JNK, L929sA cells. It counts as cell-based, mouse. To be noted: 2000 IU/ml TNF 15 minutes. On the technique in general: Immunoblotting shows a protein as a band on a membrane.
The next data set has as its system pNF-κB-Luc. Description: TNF-activated pNF-κB-Luc (E1B TATA) in HEK293T cells. It counts as cell-based, human. The note with it: 2000 IU/ml TNF.
The next data set relates to oestrus cycle. To be noted: rats; cited from earlier work.
Data set [12] has as its system NF-κB (p1168(AP-1mut)IL6P-luc+). In kind it is cell-based, mouse. The note with it: 2000 IU/ml TNF.
Data set [13] relates to NF-κB DNA-binding activity (IL-6 NF-κB response element). To be noted: L929sA cells, previously demonstrated; cited from earlier work.

For `CNCC(Cl)c1ccc(OC(C)=O)cc1.Cl` (stereo not shown) [CpdA, 2-(4-acetoxyphenyl)-2-chloro-N-methyl-ethylammonium chloride], the “inhibition of TNF-induced pE-selectin-luc+” value was “also effective, though to a lesser extent” in data set [1] (1 μM) and “inhibits the TNF-activated reporter to the same extent as 1 μM DEX, i.e. to background levels” in data set [1] (10 μM). Also, in data set [2] (0.1, 1 and 10 μM), the “inhibition of STS-induced AP-1-mediated transactivation” value is “capable of inhibiting the STS-induced transactivation”. Further, the “inhibition of TNF-activated p(IL6κB)350hu.IL6Pluc+” value in [3] was “inhibits, to a similar extent as DEX”. The entries for the “inhibition of TNF induction of p1168hu.IL6P-luc+ (relative luciferase induction factor)” value in data set [4] (0.1 μM) and in data set [4] (1 μM) were “downmodulatory effect” and “lowers the relative luciferase induction factor to almost the same extent as 1 μM DEX”, respectively. In addition, the “transactivation of p(GRE)2-50-luc+” value in data set [5] (0.1 and 10 μM, 8 h) is listed as “lack of activity”. Moreover, the “effect on DEX-induced p(GRE)2-50-luc+ transactivation” value in data set [5] (CpdA together with 1 μM DEX) is recorded as “competition for GR molecules present in the cell”. In data set [6] (10 μM), the “inhibition of the activity of Gal4p65” value is on record as “able to halfmaximally inhibit the activity of Gal4p65”. In addition, the stability in solution result in data set [7] is reported as “starts to cyclise to the corresponding aziridine”. Further, the “repression of TNF-activated p(IL6-κB)350hu.IL6P-luc+” value in data set [8] (10 μM) was “only when GR is present”. In addition, the “hygroscopicity and light sensitivity” value in data set [9] is “hygroscopic and sensitive to light”. Besides, the “lowering of TNF-induced IL-6 protein levels” value in [10] is “able to efficiently lower these TNF-induced levels”. Besides, the “effect on NF-κB DNA-binding activity” value in data set [11] was “no change of NF-κB DNA-binding activity is observed”. In the data set with JNK p46 and p54 (1 or 10 μM for 2 h), the “effect on amount of phosphorylated (activated) JNK” value is “does not affect the amount of activated JNK p46 and p54”. The “repression of TNF-activated pNF-κB-Luc” value with pNF-κB-Luc (10 μM) was “not able to mediate repression of pNF-κB-Luc”. The “effect on oestrus cycle” value with oestrus cycle is given as “disrupts the oestrus cycle of rats”. In data set [12] (1 μM and 10 μM), the “inhibition of TNF-induced NF-κB-mediated transactivation of p1168(AP-1mut)IL6P-luc+” value is listed as “capable of significantly inhibiting the TNF-induced promoter activity”.
As to `C[C@@H]1C[C@H]2[C@@H]3CCC4=CC(=O)C=C[C@]4(C)[C@@]3(F)[C@@H](O)C[C@]2(C)[C@@]1(O)C(=O)CO` [DEX, Dexamethasone, reference compound], the “inhibition of TNF-induced pE-selectin-luc+” value in [1] (1 μM) was “to background levels”. The “inhibition of STS-induced AP-1-mediated transactivation” value in data set [2] (1 μM) is recorded as “efficiently inhibits the AP-1-mediated transactivation”. Besides, in data set [4] (1 μM), the “inhibition of TNF induction of p1168hu.IL6P-luc+ (relative luciferase induction factor)” value is on record as “efficiently be inhibited”. Besides, in data set [5] (1 μM, 8 h), the “transactivation of p(GRE)2-50-luc+ (induction factor)” value was “at least 8 fold”. For the same molecule, the “inhibition of the activity of Gal4p65” value in [6] (1 μM) is “able to halfmaximally inhibit the activity of Gal4p65”. In [13], the “effect on NF-κB DNA-binding capacities” value was “without affecting the DNA-binding capacities of NF-κB”. Besides, the “repression of TNF-activated p(IL6-κB)350hu.IL6P-luc+” value in [8] (1 μM) was “only when GR is present”. In the data set with JNK p46 and p54 (1 μM for 2 h), the “effect on amount of phosphorylated (activated) JNK” value is on record as “able to inhibit the amount of phosphorylated JNK”. In addition, the “repression of TNF-activated pNF-κB-Luc” value in the data set on pNF-κB-Luc (1 μM) is on record as “not able to mediate repression of pNF-κB-Luc”. The “inhibition of TNF-induced NF-κB-mediated transactivation of p1168(AP-1mut)IL6P-luc+” value in data set [12] (1 μM) was “efficiently inhibit this NF-κB-mediated transactivation”.
